Data from patent US5070089A, “Therapeutic agent for liver disease and piperazine derivatives” (Nippon Chemiphar Co., Ltd., priority 1988, dated 1991).
Like-named read-outs stand apart in the source and are kept apart here.

Experiments:
[1] = Toxicity by oral administration; type: in vivo; conditions: even at 1,600 mg/kg by oral administration
Description: Further, it has been experimentally confirmed that all of piperazine derivatives of the invention tested for toxicity (Compound Nos. 4, 5, 22, 23, 32, 33, 38, 75 and 113 indicated in Tables 1 and 2) cause no death even at 1,600 mg/kg by oral administration.

[2] = tested on: acute liver disease caused by CCl4 (Wister-strain rat); assay: Preventive action on deviation of GOT value and GPT value in vivo using model of acute liver disease caused by CCl4
Description: CCl4 in olive oil (concentration: 50%) was orally administered to a Wister-strain rat (body weight: 170-180 g) fasted for 24 hrs., at a dose of 1 ml/kg, to cause acute liver disease. […] For control group, 1.0% methylcellulose (MC) was administered in place of the piperazine derivative. For normal group, a simple olive oil was administered in place of the CCl4 -containing olive oil. For the administration, the piperazine derivative was employed in the form of a dispersion in aqueous MC solution (concentration: 1.0%). At 24 hours after the administration of CCl4, the rat was abdominally sectioned under ether anesthesia. From the abrominal large vein, a blood was collected. The collected blood was subjected to centrifugal separation at 3,000 r.p.m. for 10 min to obtain its plasma. […] The results are set forth in Table 4 in terms of a ratio (%) of suppression (prevention) of GOT or GPT. In Table 4, "***" means 90-100%, "**" means 60-90%, and "*" means 30-60%. The ratio of suppression is calculated according to the following equation. [formula]

[3] = tested on: lipid peroxidation in rat hepatocyte; assay: Inhibitory action on lipid peroxidation (rat hepatocyte, TBA color formation, absorbance at 530 nm); type: biochemical; conditions: 37° C., 1 hour; for Inhibition ratio (at Final Concentration of Tested Compound) 10^-4 M: final concentration 10^-4 M, 100 µM; for Inhibition ratio (at Final Concentration of Tested Compound) 10^-5 M: final concentration 10^-5 M, 10 µM
Description: A hepatocyte was isolated from rat according to the method of Ui et al (Hiroshi Oka and Tadao Ui: "Isolated Cells--Experimental and Application",page 91). The determination of lipid peroxidation was performed using a died hepatocyte which had been frozen at -85° C. and stored at the temperature and which was melted when the experimental was done. […] The centrifugal tube was shaken at 37° C. for 1 hour for performing a reaction, and then placed into an ice-water bath to terminate the reaction. […] The centrifugal tube was taken out of the ice-water bath and placed in a water bath (kept at 95°-98° C.). The content of the tube was heated in the bath for 1 hour for developing color-formation. After the heating was complete, the content of the tube was cooled and subjected to centrifugal separation. The inhibitory action on lipid peroxidation of the sample was determined by measuring absorbance at 530 nm. The determined inhibitory action is expressed inhibition ratio by percent (%) calculated by the following equation: [formula] In Table 3, the number of the tested compound corresponds to the identical number set forth in Tables 1 and 2 for identifying the compounds of the invention.

[4] = Rattus norvegicus, po, 24 h, read-out: ratio (%) of suppression (prevention) of GOT
[5] = Rattus norvegicus, po, 24 h, read-out: ratio (%) of suppression (prevention) of GPT
[6] = rat, 30 mg/kg, 3 hour before oral CCl4, plasma GOT at 24 hours after CCl4, read-out: ratio (%) of suppression (prevention) of GOT
[7] = rat, 30 mg/kg, 3 hour before oral CCl4, plasma GPT at 24 hours after CCl4, read-out: ratio (%) of suppression (prevention) of GPT

SMILES | death in toxicity test [1] | inhibition in vivo at 30 mg/kg [2, 4] [%] | inhibition in vivo at 30 mg/kg [2, 5] [%] | Inhibition ratio (at Final Concentration of Tested Compound) 10^-4 M [3] [%] | Inhibition ratio (at Final Concentration of Tested Compound) 10^-5 M [3] [%] | inhibition in vivo at 30 mg/kg [2, 6] [%] | inhibition in vivo at 30 mg/kg [2, 7] [%]
COc1cc(C=O)cc(CN2CCN(C(=S)SC)CC2)c1O [Compound 38, Methyl 4-(5-formyl-2-hydroxy-3-methoxybenzyl)-1-piperazinecarbodithioate] | no death | 60 to 90 | 60 to 90 |  |  |  | 
COc1c(OC(C)=O)c(C)c(CN2CCN(C(=S)SC)CC2)c(OC(C)=O)c1OC [Compound 48, Methyl 4-(2,5-diacetoxy-3,4-dimethoxy-6-methylbenzyl)-1-piperazinecarbodithioate] |  |  |  | 96.2 | 97.5 | 60 to 90 | 60 to 90
COc1ccc(CC(=O)N2CCN(C(=S)SC)CC2)c(OC)c1OC [Compound 75, Methyl 4-(2,3,4-trimethoxyphenylacetyl)-1-piperazinecarbodithioate] | no death | 60 to 90 | 60 to 90 |  |  |  | 
COc1ccc(OC)c(CN2CCN(C(=S)SC)CC2)c1 [Compound 23, Methyl 4-(2,5-dimethoxybenzyl)-1-piperazinecarbodithioate] | no death | 90 to 100 | 90 to 100 | 100 | 60.6 |  | 
COc1ccc(CN2CCN(C(=S)SC)CC2)c(OC)c1OC [Compound 33, Methyl 4-(2,3,4-trimethoxybenzyl)-1-piperazinecarbodithioate] | no death | 90 to 100 | 60 to 90 |  |  |  | 
CSC(=S)N1CCN(Cc2ccc(O)c(O)c2O)CC1 [Compound 32, Methyl 4-(2,3,4-trihydroxybenzyl)-1-piperazinecarbodithioate] | no death | 60 to 90 | 60 to 90 | 87.8 | 87.4 |  | 
COc1cccc(CN2CCN(C(=S)SC)CC2)c1OC [Compound 22, Methyl 4-(2,3-dimethoxybenzyl)-1-piperazinecarbodithioate] | no death | 90 to 100 | 60 to 90 | 100 | 92.0 |  | 
CSC(=S)N1CCN(Cc2cc(O)ccc2O)CC1.Cl [Compound 16, Methyl 4-(2,5-dihydroxybenzyl)-1-piperazinecarbodithioate hydrochloride] |  |  |  | 73.4 | 69.4 | 90 to 100 | 90 to 100
CSC(=S)N1CCN(Cc2ccccc2N)CC1 [Compound 11, Methyl 4-(2-aminobenzyl)-1-piperazinecarbodithioate] |  |  |  | 98.6 | 95.5 | 90 to 100 | 90 to 100
CSC(=S)N1CCN(CC2=C(C)C(=O)C(C)=C(C)C2=O)CC1 [Compound 113, Methyl 4-(3,5,6-trimethyl-1,4-benzoquinonylmethyl)-1-piperazinecarbodithioate] | no death | 90 to 100 | 60 to 90 |  |  |  | 
CSC(=S)N1CCN(Cc2ccccc2O)CC1 [Compound 4, Methyl 4-(2-hydroxybenzyl)-1-piperazinecarbodithioate] | no death | 90 to 100 | 90 to 100 | 100 | 96.6 |  | 
COc1c(O)c(C)c(CN2CCN(C(=S)SC)CC2)c(O)c1OC [Compound 47, Methyl 4-(2,5-dihydroxy-3,4-dimethoxy-6-methylbenzyl)-1-piperazinecarbodithioate] |  |  |  | 100 | 56.1 | 90 to 100 | 90 to 100
COc1ccccc1CN1CCN(C(=S)SC)CC1 [Compound 5, Methyl 4-(2-methoxybenzyl)-1-piperazinecarbodithioate] | no death | 90 to 100 | 90 to 100 |  |  |  | 
CCCOC(=O)c1cc(O)c(O)c(O)c1CN1CCN(C(=S)SC)CC1 [Compound 44, Methyl 4-(6-propyloxycarbonyl-2,3,4-trihydroxybenzyl)-1-piperazinecarbodithioate] |  |  |  | 96.6 | 96.0 | 90 to 100 | 60 to 90
